Reference: paper PMC9029529, “Distinct Mechanisms of Cytotoxicity in Novel Nitrogenous Heterocycles: Future Directions for a New Anti-Cancer Agent” (Molecules, 2022)

Experiments:
[1] = test system: MDA-MB-231 cells; test: MTT assay, MDA-MB-231; type: cell-based, human; details: Homo sapiens, MDA-MB-231, 24 h, 0 to 250 μM, read-out: IC50 Breast Cancer (MDA-MB-231)
Description: (§1) To establish the cytotoxic effect of the nitrogenous derivatives, cells were treated with various concentrations of the drugs ranging from 0 to 250 μM. Following a 24 h incubation period, cell viability was assessed using the MTT assay. Mitoxantrone served as a positive control to evaluate growth inhibition. Since heterogeneity is a hallmark of cancer, the study included cell lines with diverse genomic and proteomic profiles. […] In this regard, further optimization would be required to increase the selective therapeutic potential of compound 9. To determine whether the anti-proliferative effect of the nitrogen derivatives could be translated to other malignancies, we tested the cytotoxic effect on the HCT8 (colorectal cancer) cell line. HCT8 is an adenocarcinoma driven by the Kirsten Rat Sarcoma (KRAS) mutation, unlike MCF-10A [28].
(§2) The MTT assay was utilized to examine the imidazole derivatives’ anti-proliferative activity against MCF-10A, MDA-MB-231, and HCT8 cell lines, purchased from ATCC, USA [47]. Firstly, 5 × 10^3 cells/well were seeded in a 96-well plate in 100 μL of growth medium and were subsequently cultured overnight with various concentrations of each compound ranging from 0 to 250 µM [48]. The media was aspirated, and 50 µL of serum-free media and 50 µL of MTT solution were added to each well. Next, cells were incubated at 37 °C for 3 h, then 150 µL of MTT solvent was added into each well. After that, plates were wrapped in foil and agitated for 15 min on an orbital shaker. Finally, the absorbance was measured within 1 h at OD590 nm. Half-maximal inhibitory concentration IC50 values (μM) were calculated for each compound from the dose–response curve. Experiments were performed in triplicates.

[2] = test system: HCT8 cells; test: MTT assay, HCT8; type: cell-based; details: Homo sapiens, HCT-8, 24 h, 0 to 250 μM, read-out: IC50 Colorectal Cancer (HCT8)
Description: as §1, §2

[3] = test system: KAIMRC1 cells; test: CellTiter-Glo assay, KAIMRC1; type: cell-based; details: Homo sapiens, 24 h, read-out: IC50 Breast Cancer KAIMRC1
Description: (§3) To validate the anti-proliferative activity of the imidazole derivatives, the compounds were tested against several cancer cell lines, which included breast cancer (MDA-MB-231, KAIMRC1, and KAIMRC2), colorectal cancer (HCT8), and acute promyelocytic leukemia cells (HL60). KAIMRC1 was isolated from a person with stage II-B breast cancer and is ER+/PR+ and HER2-. In comparison, KAIMRC2 was isolated from a person with metastasized breast cancer and is a triple-negative (ER-/PR-, and HER2-) tumor cell line.
(§4) The CellTiter-Glo assay (Promega™, Madison, WI, USA) was used to evaluate imidazole and oxazolone derivatives cytotoxicity against various cancer cell lines; MCF-10A, HL60, MDA-MB-231, and HCT8, purchased from ATCC, USA, except KAIMRC1 and KAIMRC2, which were isolated, established, and characterized in the core laboratory facility KAIMRC, Riyadh, Saudi Arabia. The cells were seeded in white 96-well plates at a density of 5 × 10^3 cells/well in a 100 μL of growth medium with various concentrations of each compound ranging from 0 to 250 µM. Cells were incubated at 37 °C for 24 h. Plates were equilibrated at RT for 30 min. A quantity of 100 µL of CellTiter-Glo reagent was added to each well and mixed for 2 min on an orbital shaker. Plates were incubated for 10 min at RT before measuring the luminescence using an Envision plate reader (Perkin Elmer). Half-maximal inhibitory concentration IC50 values (μM) were calculated for each imidazole derivative from the dose–response curve. The cytotoxic effect at a concentration <10 µM was considered strongly active and from 11 to 100 µM was considered moderately active, whereas above 100 µM was deemed non-active. Mitoxantrone was utilized as a positive control. Experiments were performed in triplicates.

[4] = test system: KAIMRC2 cells; test: CellTiter-Glo assay, KAIMRC2; type: cell-based; details: Homo sapiens, 24 h, read-out: IC50 Breast Cancer KAIMRC2
Description: as §3, §4

[5] = test system: MCF-10A cells; test: MTT assay, MCF-10A; type: cell-based, human; details: Homo sapiens, MCF-10A, 24 h, 0 to 250 μM, read-out: IC50 Non-Malignant Breast Epithelial Cells (MCF-10A)
Description: as §1, §2

[6] = test system: HCT8 cells; test: CellTiter-Glo assay, HCT8; type: cell-based; details: Homo sapiens, HCT-8, 24 h, read-out: IC50 Colorectal Cancer HCT8
Description: as §3, §4

[7] = test system: HL60 cells; test: CellTiter-Glo assay, HL60; type: cell-based, human; details: Homo sapiens, HL-60, 24 h, read-out: IC50 Leukemia HL60
Description: as §3, §4

[8] = test system: MDA-MB-231 cells; test: CellTiter-Glo assay, MDA-MB-231; type: cell-based; details: Homo sapiens, 24 h, read-out: IC50 Breast Cancer MDA-MB-231
Description: as §3, §4

Row | Structure (SMILES) | IC50 [1] | IC50 [2] | IC50 [3] | IC50 [4] | IC50 [5] | IC50 [6] | IC50 [7] | IC50 [8]
1 | O=C1OC(c2ccccc2)=N/C1=C\c1ccccc1 [Compound 1] | 22.9 µM | 51.1 µM | 62.2 µM | 59.2 µM |  |  |  | 
2 | O=C1OC(c2ccccc2)=N/C1=C\C=C\c1ccccc1 [Compound 2] | 43.6 µM | 72.2 µM | 104 µM | 121 µM | 65.5 µM | 121 µM |  | 
3 | COc1cccc(/C=C2\N=C(c3ccccc3)OC2=O)c1 [Compound 3] | 40 µM |  | 58.6 µM | 64.3 µM |  |  |  | 
4 | CN(C)c1ccc(/C=C2\N=C(c3ccccc3)OC2=O)cc1 [Compound 4] | 69.4 µM |  |  |  |  |  |  | 
5 | O=C1OC(c2ccccc2)=N/C1=C\c1ccccc1O [Compound 5] | 39.6 µM | 39.1 µM | 28.6 µM | 30.3 µM | 34.2 µM | 63.7 µM | 17.9 µM | 52.1 µM
6 | COc1cc(/C=C2\N=C(c3ccccc3)OC2=O)ccc1O [Compound 6] | 50.6 µM | 70.8 µM |  |  | 50.4 µM |  |  | 
7 | O=C1OC(c2ccccc2)=N/C1=C\c1ccco1 [Compound 7] | 23 µM | 73.5 µM | 39.2 µM | 87.9 µM | 63 µM | 91.2 µM | 67.4 µM | 60.9 µM
8 | O=C1/C(=C/c2ccccc2O)N=C(c2ccccc2)N1Nc1ccc([N+](=O)[O-])cc1[N+](=O)[O-] [Compound 10] | 56 µM |  |  |  |  |  |  | 
9 | COc1cc(/C=C2\N=C(c3ccccc3)N(Nc3ccc([N+](=O)[O-])cc3[N+](=O)[O-])C2=O)ccc1O [Compound 11] | 57.1 µM |  | 24.8 µM | 32.2 µM |  | 40.4 µM | 20.9 µM | 45.4 µM
10 | O=C1/C(=C/c2ccco2)N=C(c2ccccc2)N1Nc1ccc([N+](=O)[O-])cc1[N+](=O)[O-] [Compound 12] | 50.8 µM |  |  |  |  |  |  | 
11 | COc1ccc(/C=C2\N=C(c3ccccc3)N(N)C2=O)cc1 [Compound 13] | 78.5 µM |  |  |  |  |  |  | 
12 | NN1C(=O)/C(=C/c2ccccc2)N=C1c1ccccc1 [Compound 14] | 139 µM |  | 243 µM | 161 µM |  |  |  | 243 µM
13 | O=C1c2c(O)ccc(O)c2C(=O)c2c(NCCNCCO)ccc(NCCNCCO)c21 [Mitoxantrone, reference compound] | 3.17 µM | 0.711 µM | 1.71 µM | 0.801 µM | 2.9 µM | 5.62 µM | 0.125 µM | 1.94 µM
